Test results published in patent US8580795B2, “Heterocyclic compounds as phosphodiesterase inhibitors” (Orchid Chemicals & Pharmaceuticals Limited, priority 2009, dated 2013).

Each molecule was assayed against human PDE4B enzyme (PDE4B2) (Homo sapiens, UniProt Q07343) (assay: Phosphodiesterase 4 screening assay (SPA, [3H]-cAMP)). Details: 100 nM compound; 0.5 μM cAMP.
Chain of human PDE4B enzyme (PDE4B2) (Q07343 1-564 isoform Q07343-2): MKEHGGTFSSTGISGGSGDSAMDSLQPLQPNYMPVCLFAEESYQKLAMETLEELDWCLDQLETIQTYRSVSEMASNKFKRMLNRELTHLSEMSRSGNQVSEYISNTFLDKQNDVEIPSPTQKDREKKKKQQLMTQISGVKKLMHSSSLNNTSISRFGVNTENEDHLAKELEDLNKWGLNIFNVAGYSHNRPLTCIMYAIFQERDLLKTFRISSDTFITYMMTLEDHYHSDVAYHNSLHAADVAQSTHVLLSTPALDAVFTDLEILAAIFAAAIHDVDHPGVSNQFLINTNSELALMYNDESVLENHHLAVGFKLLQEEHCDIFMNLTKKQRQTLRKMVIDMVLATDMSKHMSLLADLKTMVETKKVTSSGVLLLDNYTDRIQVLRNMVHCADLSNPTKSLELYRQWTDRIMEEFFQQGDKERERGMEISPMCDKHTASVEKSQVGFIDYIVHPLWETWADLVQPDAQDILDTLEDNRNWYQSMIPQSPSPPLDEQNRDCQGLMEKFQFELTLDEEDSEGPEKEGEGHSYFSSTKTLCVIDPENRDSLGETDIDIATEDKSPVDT
Format: biochemical
Procedure: Phosphodiesterase 4 Screening Assay:
PDE4 (Phosphodiesterase type IV) enzymes convert cyclic AMP (cAMP) into AMP. The assay is performed to determine the effect of test compounds on the inhibition of purified human PDE4B enzyme.
The assay involves the detection of the Tritiated AMP (product) using SPA beads known as yittrium silicate. The linear AMP bind preferentially to SPA yittrium silicate beads compared to cyclic nucleotides in the presence of zinc sulphate. The binding of the radiolabelled product to the bead brings the isotope into close proximity to allow radiation from the tritium to excite the scintillant within the bead to emit light. The unbound radiolabel is not close enough to allow this energy transfer and the light emitted due to the binding of tritiated AMP is detected as cpm (counts per minute).
PDE Activity (SPA Based Assay Protocol):
PDE4B activity was inhibited by the compounds according to the invention in a modified SPA (scintillation proximity assay) test, supplied by GE Healthcare Life Sciences (see procedural instructions “Phosphodiesterase [^3H]-cAMP SPA enzyme assay, code TRKQ 7090”), carried out in 96-well microtitre plates. The test volume is 100 μL and contains 50 mM Tris buffer (pH 7.4), 8.3 mM Mg^2+, in the presence of inhibitor or test compound, and containing PDE4B2 enzyme (sufficient to ensure that 10-20% of the cAMP is converted, under the said experimental conditions). […] After a pre-incubation of 5 minutes at 37° C., the reaction is started by adding the substrate (cAMP; 0.5 μM cAMP, including about 50,000 cpm of [^3H]-cAMP) and the assays are incubated for a further 10 minutes; after that, they are stopped by adding SPA beads containing 18 mM ZnSO4 (50 μl). After the beads have been sedimented (>30 minutes), the microtitre plates are analyzed in a Microplate luminescence detection device (TopCount* NXT; PerkinElmer Life Sciences). Where, the signal in the absence of enzyme is defined as the background. 100% activity was defined as the signal detected in the presence of enzyme and DMSO with the background subtracted. The corresponding IC50 values of the compounds for the inhibition of PDE4B2 activity are determined from the concentration-effect curves by means of non-linear regression fit of the standard 4-parameter/multiple binding sites equation from a eight- to ten-point titration. (Catherine B. et al. Anal. Biochem., 1999, 275(2), pp. 148-155, David M. E. Biochem. Pharmacol., 1999, 57, pp. 965-973)
Molecule `COc1ccc(-c2nc(-c3ccc(C#N)cc3)cs2)c2c1oc1ccccc12` [Example 8, 4-(2-(4-Methoxydibenzo[b,d]furan-1-yl)-1,3-thiazol-4-yl)benzonitrile] has an inhibition at 0.1 µM of 5.16%.
For `COc1ccc(-c2nc(CC(=O)Nc3c(Cl)cncc3Cl)cs2)c2c1oc1ccccc12` [Example 12, N-(3,5-Dichloropyridin-4-yl)-2-(2-(4-methoxydibenzo[b,d]furan-1-yl)-1,3-thiazol-4-yl)acetamide], the inhibition at 0.1 µM was 8.92%.
For `CCOC(=O)c1csc(-c2ccc(OC)c3oc4ccccc4c23)n1` [Example 15, Ethyl 2-(4-methoxydibenzo[b,d]furan-1-yl)-1,3-thiazole-4-carboxylate], the inhibition at 0.1 µM was 17.6%.
For `COc1ccc(-c2nc(C(=O)O)cs2)c2c1oc1ccccc12` [Example 16, 2-(4-Methoxydibenzo[b,d]furan-1-yl)-1,3-thiazole-4-carboxylic acid], the inhibition at 0.1 µM was 36%.
`COc1ccc(-c2nc(C(=O)Nc3ccccc3)cs2)c2c1oc1ccccc12` [Example 17, 2-(4-Methoxydibenzo[b,d]furan-1-yl)-N-phenyl-1,3-thiazole-4-carboxamide] was tested, and the inhibition at 0.1 µM was 2.42%.
With `COc1ccc(-c2nc(C(=O)N3CCN(c4ncccn4)CC3)cs2)c2c1oc1ccccc12` [Example 18, (2-(4-Methoxydibenzo[b,d]furan-1-yl)-1,3-thiazol-4-yl)(4-(pyrimidin-2-yl)piperazin-1-yl)methanone] the inhibition at 0.1 µM was 25.8%.
For `COc1ccc(-c2nc(C(=O)N3CCN(c4ccccn4)CC3)cs2)c2c1oc1ccccc12` [Example 19, (2-(4-Methoxydibenzo[b,d]furan-1-yl)-1,3-thiazol-4-yl)(4-(pyridin-2-yl)piperazin-1-yl)methanone], the inhibition at 0.1 µM was 21.9%.
Work on `COc1ccc(-c2nc(C(=O)Nc3ccc(Cl)cc3)cs2)c2c1oc1ccccc12` [Example 20, N-(4-Chlorophenyl)-2-(4-methoxydibenzo[b,d]furan-1-yl)-1,3-thiazole-4-carboxamide] yielded an inhibition at 0.1 µM of 2.98%.
Work on `CCOC(=O)c1sc(-c2ccc(OC)c3oc4ccccc4c23)nc1C` [Example 21, Ethyl 2-(4-methoxydibenzo[b,d]furan-1-yl)-4-methyl-1,3-thiazole-5-carboxylate] yielded an inhibition at 0.1 µM of 9.1%.
With `COc1ccc(-c2csc(-c3ccc(OC)c4oc5ccccc5c34)n2)cc1` [Example 22, 2-(4-Methoxydibenzo[b,d]furan-1-yl)-4-(4-methoxyphenyl)-1,3-thiazole] the inhibition at 0.1 µM was 19.4%.
`COc1ccc(-c2nc(C)c(C(=O)O)s2)c2c1oc1ccccc12` [Example 23, 2-(4-Methoxydibenzo[b,d]furan-1-yl)-4-methyl-1,3-thiazole-5-carboxylic acid] gave an inhibition at 0.1 µM of 16.8%.
`CS(=O)(=O)Nc1ccc2oc3c(OC(F)F)ccc(-c4nc(C(=O)O)co4)c3c2c1` [Example 49, 2-(4-(Difluoromethoxy)-8-(methylsulfonamido)dibenzo[b,d]furan-1-yl)-1,3-oxazole-4-carboxylic acid] was tested, and the inhibition at 0.1 µM was 59.5%.
Molecule `CCNC(=O)c1nc(-c2ccc(OC)c3oc4ccccc4c23)oc1C` [Example 57, N-Ethyl 2-(4-methoxydibenzo[b,d]furan-1-yl)-5-methyl-1,3-oxazole-4-carboxamide] has an inhibition at 0.1 µM of 32.5%.
`COc1ccc(-c2nc(C(N)=O)c(C)o2)c2c1oc1ccccc12` [Example 58, 2-(4-Methoxydibenzo[b,d]furan-1-yl)-5-methyl-1,3-oxazole-4-carboxamide] was tested, and the inhibition at 0.1 µM was 64.1%.
For `COc1ccc(-c2nc(C(=O)NC3CCC(O)CC3)c(C)o2)c2c1oc1ccccc12` (centres unmarked) [Example 60, N-(4-Hydroxycyclohexyl)-2-(4-methoxydibenzo[b,d]furan-1-yl)-5-methyl-1,3-oxazole-4-Carboxamide], the inhibition at 0.1 µM was 47.3%.
For `COc1ccc(-c2nc(C(=O)NC(C)C)c(C)o2)c2c1oc1ccccc12` [Example 61, 2-(4-Methoxydibenzo[b,d]furan-1-yl)-5-methyl-N-(propan-2-yl)-1,3-oxazole-4-carboxamide], the inhibition at 0.1 µM was 44.3%.
`COc1ccc(-c2nc(C(=O)N3CCN(c4ncc(C(=O)O)cn4)CC3)co2)c2c1oc1ccccc12` [Example 66, 2-(4-(2-(4-Methoxydibenzo[b,d]furan-1-yl)oxazole-4-carbonyl)piperazin-1-yl)pyrimidine-5-carboxylic acid] was tested, and the inhibition at 0.1 µM was 18.9%.
Work on `COc1ccc(-c2nc(C(N)=O)co2)c2c1oc1ccccc12` [Example 67, 2-(4-Methoxydibenzo[b,d]furan-1-yl)-1,3-oxazole-4-carboxamide] yielded an inhibition at 0.1 µM of 22.8%.
`CNC(=O)c1coc(-c2ccc(OC)c3oc4ccccc4c23)n1` [Example 69, 2-(4-Methoxydibenzo[b,d]furan-1-yl)-N-methyl-1,3-oxazole-4-carboxamide] gave an inhibition at 0.1 µM of 33.3%.
`COc1ccc(-c2nc(C(=O)NC3CC3)co2)c2c1oc1ccccc12` [Example 70, N-Cyclopropyl-2-(4-methoxydibenzo[b,d]furan-1-yl)-1,3-oxazole-4-carboxamide] gave an inhibition at 0.1 µM of 2.34%.
`COc1ccc(-c2nc(C(=O)N3CCCC3)co2)c2c1oc1ccccc12` [Example 71, [2-(4-Methoxydibenzo[b,d]furan-1-yl)-1,3-oxazol-4-yl](pyrrolidin-1-yl)methanone] gave an inhibition at 0.1 µM of 20.3%.
In the case of `COc1ccc(-c2nc3cc(C(=O)O)ccc3o2)c2c1oc1ccccc12` [Example 72, 2-(4-Methoxydibenzo[b,d]furan-1-yl)-1,3-benzo[d]oxazole-5-carboxylic acid], the inhibition at 0.1 µM is reported as 22.2%.
Molecule `COc1ccc(-c2nc3cc(C(N)=O)ccc3o2)c2c1oc1ccccc12` [Example 73, 2-(4-Methoxydibenzo[b,d]furan-1-yl)-1,3-benzo[d]oxazole-5-carboxamide] has an inhibition at 0.1 µM of 18.1%.
For `COc1ccc(-c2nc3ccccc3o2)c2c1oc1ccccc12` [Example 74, 2-(4-Methoxydibenzo[b,d]furan-1-yl)-1,3-benzo[d]oxazole], the inhibition at 0.1 µM was 54.9%.
`COc1ccc(-c2nc3ncccc3o2)c2c1oc1ccccc12` [Example 75, 2-(4-Methoxydibenzo[b,d]furan-1-yl)[1,3]oxazolo[4,5-b]pyridine] was tested, and the inhibition at 0.1 µM was 37.2%.
For `COc1ccc(-c2nc3cc(C(=O)NC4CCCC4)ccc3o2)c2c1oc1ccccc12` [Example 76, N-Cyclopentyl-2-(4-methoxydibenzo[b,d]furan-1-yl)-1,3-benzo[d]oxazole-5-carboxamide], the inhibition at 0.1 µM was 48.3%.
In the case of `COc1ccc(-c2nc3cc(C(=O)NC4CCC(O)CC4)ccc3o2)c2c1oc1ccccc12` (centres unmarked) [Example 77, N-(4-Hydroxycyclohexyl)-2-(4-methoxydibenzo[b,d]furan-1-yl)-1,3-benzo[d]oxazole-5-carboxamide], the inhibition at 0.1 µM is reported as 55.3%.

These molecules were tested on TNF-α (assay: In vitro measurement of TNF-α production in LPS-stimulated human PBMC (ELISA)). Details: 100 nM compound, LPS 1 μg/mL, 18 h, NA: Not active.
Format: cell-based
Procedure: Biological Activity In Vitro Measurement of Tumor Necrosis Factor Alpha (TNF-α):
This assay determines the effect of test compounds on the production of TNF-α in human Peripheral Blood Mononuclear Cells (PBMC). Compounds were tested for their ability to inhibit the activity of TNF α in human PBMC. PBMC were isolated from blood (of healthy volunteers) using BD Vacutainer CPT™ (Cell preparation tube, BD Bio Science) and suspended in RPMI (Rosewell park memorial institute) medium (Physiol. Res. 2003, 52, 593-598). The test compounds were pre-incubated with PBMC (0.5 million/incubation well) for 15 minutes at 37° C. and then stimulated with Lipopolysaccharide (Escherichia coli: B4; 1 μg/mL) for 18 h at 37° C. in 5% CO2. The levels of TNF-α in the cell culture medium were estimated using enzyme-linked immunosorbent assay performed in a 96 well format as per the procedure of the manufacturer (Cayman Chemical, Ann Arbor, USA).
With `COc1ccc(-c2nc(-c3cccc(C(=O)O)n3)cs2)c2c1oc1ccccc12` [Example 2, 6-(2-(4-Methoxydibenzo[b,d]furan-1-yl)-1,3-thiazol-4-yl)picolinic acid] the inhibition at 0.1 µM was 26.1%.
With `COc1ccc(-c2nc(C(=O)NC3CCCC3)c(C)s2)c2c1oc1ccccc12` [Example 26, N-Cyclopentyl-2-(4-methoxydibenzo[b,d]furan-1-yl)-5-methyl-1,3-thiazole-4-carboxamide] the inhibition at 0.1 µM was 21.9%.
With `COc1ccc(-c2nc(C(=O)NC3CCC(O)CC3)c(C)s2)c2c1oc1ccccc12` (centres unmarked) [Example 27, N-(4-Hydroxycyclohexyl)-2-(4-methoxydibenzo[b,d]furan-1-yl)-5-methyl-1,3-thiazole-4-carboxamide] the inhibition at 0.1 µM was 82.7%.
`COc1ccc(-c2nc(C(=O)Nc3c(Cl)cncc3Cl)c(C)s2)c2c1oc1ccccc12` [Example 28, N-(3,5-Dichloropyridin-4-yl)-2-(4-methoxydibenzo[b,d]furan-1-yl)-5-methyl-1,3-thiazole-4-carboxamide] was tested, and the inhibition at 0.1 µM was 0.88%.
`CCNC(=O)c1nc(-c2ccc(OC)c3oc4ccccc4c23)sc1C` [Example 29, N-Ethyl-2-(4-methoxydibenzo[b,d]furan-1-yl]-5-methyl-1,3-thiazole-4-carboxamide] was tested, and the inhibition at 0.1 µM was 18.4%.
